Measured values published in patent US20230414575A1, “MK2 ACTIVATING COMPOUNDS FOR USE IN TREATING VASCULAR LEAK AND ENDOTHELIAL BARRIER DISORDERS” (Akttyva Therapeutics, Inc., priority 2020, published 2023).

biological target: T1, MK2 (Rattus norvegicus, UniProt Q80ZF4); assay: Western blot of HSP-27 phosphorylation in rat microvascular endothelial cells; format: cell-based; details: 20 μM, 30 minutes, 37° C., of five compounds tested
T1 construct: endogenous in cells; host or cells: rat microvascular endothelial cells (RMVEC)
T1 sequence (Q80ZF4 1-386): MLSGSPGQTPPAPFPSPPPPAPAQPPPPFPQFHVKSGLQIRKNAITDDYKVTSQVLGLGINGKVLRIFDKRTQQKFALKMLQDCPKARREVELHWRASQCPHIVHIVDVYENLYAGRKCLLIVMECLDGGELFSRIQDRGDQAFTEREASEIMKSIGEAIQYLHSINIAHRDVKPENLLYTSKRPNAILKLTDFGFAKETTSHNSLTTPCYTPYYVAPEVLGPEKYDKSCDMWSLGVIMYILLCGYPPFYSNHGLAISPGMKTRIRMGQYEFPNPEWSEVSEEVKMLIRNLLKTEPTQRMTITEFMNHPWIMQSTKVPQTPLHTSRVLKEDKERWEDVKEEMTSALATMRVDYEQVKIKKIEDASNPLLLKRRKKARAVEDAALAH
Procedure: In order to assess the functional activity of the putative MK2 binding activators, a series of these compounds (i.e., Leflunomide, Netupitant, Paliperidone, Lomitapide, and Perospirone) were analyzed by Western blot analysis. Rat microvascular endothelial cells were grown to confluency in 35 mm tissue culture dishes. The cells were treated with or without the putative MK2 binding activators at 20 μM concentration for 30 minutes at 37° C. As a positive control, one of the cell dishes was exposed to UV light for ca. 10 minutes. […] The membrane was washed, treated with a chemiluminescence substrate, and digitally imaged followed by quantification by densitometry. The intensity of detected signal was proportional to the MK2 activation potency of the tested compound.
Western blot results from the compounds analyzed by the above-described method are provided in FIG. 1 and graphically as a histogram plot in FIG. 2, after normalization for HSP-27 signal.
The two bands seen in each lane of the blots represent monomeric and dimeric forms of both phosphorylated and unphosphorylated HSP-27. The intensity of the bands was quantified by densitometry and then each raw readout was normalized by the signal intensity of unphosphorylated HSP-27, in order to correct for any differences in lysate load across the various treatment conditions.

Row | SMILES | increase in HSP-27 phosphorylation (Western blot, normalized for HSP-27 signal)
1 | O=C(NC1CCN(CCCCC2(C(=O)NCC(F)(F)F)c3ccccc3-c3ccccc32)CC1)c1ccccc1-c1ccc(C(F)(F)F)cc1 [Compound 68, Lomitapide] | strongest increase in HSP-27 phosphorylation

biological target: T1, MK2; assay: ELISA MK2 cell-based activity assay (phospho-HSP-27), RMVEC cells; details: compound 20 μM, 30 minutes, 37° C.
Procedure: (§1) The MK2 activator candidates, identified using the artificial intelligence (AI)-assisted docking approach, were tested in activity assays for lead selection against the MK2 target. MK2 activation was assessed using (a) a cell-based assay using rat microvascular endothelial cells (RMVEC) and (b) human cancer skin fibroblast cells (Malme-3M). In both assays, an Enzyme-linked ImmunoSorbent Assay (ELISA) technique was used to measure (HSP-27) phosphorylation (DYC2314-2, R&D Systems). Both cell lines were grown to confluency in a 96-well tissue culture plate and treated at 37° C. for 30 minutes with the test compounds at concentrations of 20 μM. The cells were subsequently lysed with a lysis solution containing 0.5% Triton X-100 and anti-proteolysis agents. The resulting lysates were then loaded onto ELISA plates coated with anti-rat phospho-HSP27. After incubation and washing, the plates were treated with an horseradish peroxidase (HRP)-conjugated anti-phospho-HSP27 secondary antibody and then measured for chemiluminescence. Higher activity compounds, acting on MK2, induced higher levels of HSP-27 phosphorylation, as measured by the ELISA.

Row | SMILES | Ratio Compound/control
2 | O=C(NC1CCN(CCCCC2(C(=O)NCC(F)(F)F)c3ccccc3-c3ccccc32)CC1)c1ccccc1-c1ccc(C(F)(F)F)cc1 [Compound 68, Lomitapide] | 3.4
3 | O=C(Nc1ccc(-c2ccnc(Nc3ccc(N4CCOCC4)cc3)n2)cc1)C1CCCN1 (centres unmarked) [Compound 78, Xl-019] | 0.6
4 | FC(F)(F)c1ccc(/C=C/c2nc(COc3ccc(CCCCn4ccnn4)cc3)co2)cc1 [Compound 37, Mubritinib] | 1.6
5 | C=CCn1c(=O)c2cnc(Nc3ccc(N4CCN(C)CC4)cc3)nc2n1-c1cccc(C(C)(C)O)n1 [Compound 36, Azd-1775] | 0.9
6 | O=C(O)CCn1c2c(c3ccccc31)C[C@H](NS(=O)(=O)c1ccc(F)cc1)CC2 [Compound 93, Ramatroban] | 1.3
7 | Cc1cn(-c2cc(NC(=O)c3ccc(C)c(Nc4nccc(-c5cccnc5)n4)c3)cc(C(F)(F)F)c2)cn1 [Compound 51, Nilotinib] | 1.1
8 | Fc1ccccc1-c1nc2ccn(Cc3ccc(-c4ccc(C(F)(F)F)cc4C(F)(F)F)nn3)cc-2n1 [Compound 66, Tegobuvir] | 1.2
9 | COc1ccc(-c2ccc3ncc4c(c3c2)n(-c2ccc(N3CCNCC3)c(C(F)(F)F)c2)c(=O)n4C)cn1 [Compound 14, Bgt-226] | 1.1
10 | C[C@@H](Oc1cc(-n2cnc3ccc(CN4CCN(C)CC4)cc32)sc1C(N)=O)c1ccccc1C(F)(F)F [Compound 29, Gsk-461364] | 1.8

same assay, conditions: compound 20 μM, 30 minutes, 37° C., phospho-HSP27 ELISA

Row | SMILES | Average Response HSP27
11 | O=C(NC1CCN(CCCCC2(C(=O)NCC(F)(F)F)c3ccccc3-c3ccccc32)CC1)c1ccccc1-c1ccc(C(F)(F)F)cc1 [Compound 68, Lomitapide] | 39.2 pg/mL
12 | O=C(Nc1ccc(-c2ccnc(Nc3ccc(N4CCOCC4)cc3)n2)cc1)C1CCCN1 (centres unmarked) [Compound 78, Xl-019] | 15.2 pg/mL
13 | FC(F)(F)c1ccc(/C=C/c2nc(COc3ccc(CCCCn4ccnn4)cc3)co2)cc1 [Compound 37, Mubritinib] | 34.0 pg/mL
14 | C=CCn1c(=O)c2cnc(Nc3ccc(N4CCN(C)CC4)cc3)nc2n1-c1cccc(C(C)(C)O)n1 [Compound 36, Azd-1775] | 21.4 pg/mL
15 | O=C(O)CCn1c2c(c3ccccc31)C[C@H](NS(=O)(=O)c1ccc(F)cc1)CC2 [Compound 93, Ramatroban] | 27.6 pg/mL
16 | Cc1cn(-c2cc(NC(=O)c3ccc(C)c(Nc4nccc(-c5cccnc5)n4)c3)cc(C(F)(F)F)c2)cn1 [Compound 51, Nilotinib] | 18.2 pg/mL
17 | Fc1ccccc1-c1nc2ccn(Cc3ccc(-c4ccc(C(F)(F)F)cc4C(F)(F)F)nn3)cc-2n1 [Compound 66, Tegobuvir] | 26.2 pg/mL
18 | COc1ccc(-c2ccc3ncc4c(c3c2)n(-c2ccc(N3CCNCC3)c(C(F)(F)F)c2)c(=O)n4C)cn1 [Compound 14, Bgt-226] | 19.4 pg/mL
19 | C[C@@H](Oc1cc(-n2cnc3ccc(CN4CCN(C)CC4)cc32)sc1C(N)=O)c1ccccc1C(F)(F)F [Compound 29, Gsk-461364] | 39.0 pg/mL

biological target: T2, MK2 (Homo sapiens, UniProt P49137); assay: ELISA MK2 cell-based activity assay (phospho-HSP-27), Malme-3M cells; details: Malme-3M cells, compound 20 μM, 30 minutes, 37° C.
T2 construct: endogenous in cells; host or cells: Malme-3M
T2 sequence (P49137 whole entry): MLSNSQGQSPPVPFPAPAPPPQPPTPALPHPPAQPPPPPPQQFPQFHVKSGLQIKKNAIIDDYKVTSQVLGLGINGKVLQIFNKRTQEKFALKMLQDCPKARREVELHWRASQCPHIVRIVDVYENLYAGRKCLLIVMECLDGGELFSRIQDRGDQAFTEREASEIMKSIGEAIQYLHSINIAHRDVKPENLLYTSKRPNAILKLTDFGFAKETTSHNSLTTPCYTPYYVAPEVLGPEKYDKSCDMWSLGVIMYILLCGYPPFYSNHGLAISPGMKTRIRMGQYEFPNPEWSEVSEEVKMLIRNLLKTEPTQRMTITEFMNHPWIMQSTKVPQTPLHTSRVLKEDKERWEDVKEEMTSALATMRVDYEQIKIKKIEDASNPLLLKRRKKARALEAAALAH
Procedure: as §1

Row | SMILES | Ratio to Control
20 | O=C(NC1CCN(CCCCC2(C(=O)NCC(F)(F)F)c3ccccc3-c3ccccc32)CC1)c1ccccc1-c1ccc(C(F)(F)F)cc1 [Compound 68, Lomitapide] | 37.7
21 | O=C(Nc1ccc(-c2ccnc(Nc3ccc(N4CCOCC4)cc3)n2)cc1)C1CCCN1 (centres unmarked) [Compound 78, Xl-019] | 0.7
22 | FC(F)(F)c1ccc(/C=C/c2nc(COc3ccc(CCCCn4ccnn4)cc3)co2)cc1 [Compound 37, Mubritinib] | 1.6
23 | C=CCn1c(=O)c2cnc(Nc3ccc(N4CCN(C)CC4)cc3)nc2n1-c1cccc(C(C)(C)O)n1 [Compound 36, Azd-1775] | 0.7
24 | O=C(O)CCn1c2c(c3ccccc31)C[C@H](NS(=O)(=O)c1ccc(F)cc1)CC2 [Compound 93, Ramatroban] | 1.5
25 | Cc1cn(-c2cc(NC(=O)c3ccc(C)c(Nc4nccc(-c5cccnc5)n4)c3)cc(C(F)(F)F)c2)cn1 [Compound 51, Nilotinib] | 0.6
26 | Fc1ccccc1-c1nc2ccn(Cc3ccc(-c4ccc(C(F)(F)F)cc4C(F)(F)F)nn3)cc-2n1 [Compound 66, Tegobuvir] | 0.9
27 | COc1ccc(-c2ccc3ncc4c(c3c2)n(-c2ccc(N3CCNCC3)c(C(F)(F)F)c2)c(=O)n4C)cn1 [Compound 14, Bgt-226] | 1.2
28 | C[C@@H](Oc1cc(-n2cnc3ccc(CN4CCN(C)CC4)cc32)sc1C(N)=O)c1ccccc1C(F)(F)F [Compound 29, Gsk-461364] | 1.0

same assay, conditions: Malme-3M cells, compound 20 μM, 30 minutes, 37° C., phospho-HSP27 ELISA

Row | SMILES | Pho-HSP27
29 | O=C(NC1CCN(CCCCC2(C(=O)NCC(F)(F)F)c3ccccc3-c3ccccc32)CC1)c1ccccc1-c1ccc(C(F)(F)F)cc1 [Compound 68, Lomitapide] | 848.5 pg/mL
30 | O=C(Nc1ccc(-c2ccnc(Nc3ccc(N4CCOCC4)cc3)n2)cc1)C1CCCN1 (centres unmarked) [Compound 78, Xl-019] | 15.0 pg/mL
31 | FC(F)(F)c1ccc(/C=C/c2nc(COc3ccc(CCCCn4ccnn4)cc3)co2)cc1 [Compound 37, Mubritinib] | 36.8 pg/mL
32 | C=CCn1c(=O)c2cnc(Nc3ccc(N4CCN(C)CC4)cc3)nc2n1-c1cccc(C(C)(C)O)n1 [Compound 36, Azd-1775] | 15.7 pg/mL
33 | O=C(O)CCn1c2c(c3ccccc31)C[C@H](NS(=O)(=O)c1ccc(F)cc1)CC2 [Compound 93, Ramatroban] | 33.2 pg/mL
34 | Cc1cn(-c2cc(NC(=O)c3ccc(C)c(Nc4nccc(-c5cccnc5)n4)c3)cc(C(F)(F)F)c2)cn1 [Compound 51, Nilotinib] | 12.7 pg/mL
35 | Fc1ccccc1-c1nc2ccn(Cc3ccc(-c4ccc(C(F)(F)F)cc4C(F)(F)F)nn3)cc-2n1 [Compound 66, Tegobuvir] | 20.9 pg/mL
36 | COc1ccc(-c2ccc3ncc4c(c3c2)n(-c2ccc(N3CCNCC3)c(C(F)(F)F)c2)c(=O)n4C)cn1 [Compound 14, Bgt-226] | 26.9 pg/mL
37 | C[C@@H](Oc1cc(-n2cnc3ccc(CN4CCN(C)CC4)cc32)sc1C(N)=O)c1ccccc1C(F)(F)F [Compound 29, Gsk-461364] | 22.1 pg/mL

same assay, conditions: overall statement on compounds tested at 20 μM (Malme-3M and RMVEC cells)

Row | SMILES | response in phospho-HSP27 ELISA, overall ranking
38 | O=C(NC1CCN(CCCCC2(C(=O)NCC(F)(F)F)c3ccccc3-c3ccccc32)CC1)c1ccccc1-c1ccc(C(F)(F)F)cc1 [Compound 68, Lomitapide] | most robust response
